Results from PMC6458995, “MAP4K4 Inhibition Promotes Survival of Human Stem Cell-Derived Cardiomyocytes and Reduces Infarct Size In Vivo” (Cell Stem Cell, 2019).

Tests used:
[1] = tested on: vCor.4U cardiomyocytes; test: Human cardiac troponin I release (AlphaLISA) after oxidative stress; type: cell-based; details: 10 μM compound, up to 200 μM H2O2 or 45 μM menadione
Procedure: (§1) For cell-based dose-response experiments, MAP4K4 inhibitors were prepared in 96-well polypropylene plates as serial dilutions in DMSO of 10 mM stock solutions. To a sterile 96-well intermediate plate, 1 μl of each well was added to 99 μl of medium, the samples were mixed, and 5 μl well^-1 from the intermediate plate were transferred to the cultured cells (final concentration, 0.1% DMSO; final top concentration of inhibitor, 10 μM). Assay plates were gently centrifuged then incubated for 1 hr at 37°C. The death triggers menadione, H2O2 and doxorubicin were prepared fresh on the day of treatment at 10x the final concentrations and 5 μl well^-1 were added as appropriate. Assay plates were gently centrifuged and then incubated at 37°C for the duration of treatment.
Aliquots of medium collected after cells’ treatment with death signals and MAP4K4 inhibitors were incubated at room temperature with AlphaLISA human cardiac troponin I detection reagents (PerkinElmer): sequentially, anti-Troponin I acceptor beads for 1 hr, biotinylated antibody to troponin I for 1hr, and streptavidin (SA)-coated donor beads for 30 min. The AlphaLISA signal was acquired using the Pherastar Plus plate reader. All detection reagents were diluted in 1X AlphaLISA Immunoassay Buffer and a serially diluted analyte standard was used to quantitate the concentration of human cardiac troponin I (pg ml^-1).

[2] = IV PK (plasma concentrations after intravenous administration); type: in vivo, mice; details: IV PK (1 mg kg^−1); for Cmax / Vd / clearance / half-life: mouse, mice, plasma
[3] = Oral PK; type: in vivo, female CD-1 mice; details: for AUC(0-inf) / Cmax / Tmax / half-life: female, CD-1, mouse, mice, plasma
Procedure: In vivo pharmacokinetic profiling was performed in female CD-1 mice, using 3 animals per time point. First, 30% w/v Kleptose as excipient was dissolved in water and vortexed gently for several min. Next, 30 mg of the test compound was dissolved into 0.6 mL of DMSO, for a concentration of 50 mg ml^-1, and 4.5 mL of the Kleptose solution was added to 0.5 mL of the test compound solution. A precipitate forms, which re-dissolves over 2-5 min, leaving a clear or slightly hazy solution with a final concentration of 5 mg ml^-1. The dosing solution is used as soon as practicable, vortexing immediately prior to use. This amount was sufficient formulation for 25 doses of 200 μL (20 g mouse). Compounds were administered orally at 50 mg kg^-1, with terminal blood (plasma) sampling at 10 min, 30 min, 1 h, 2.5 h, 5 h, 10 h, and 20 h.

[4] = tested on: iCell cardiomyocytes; test: CellTiter-Glo protection from 400 μM H2O2; type: cell-based; details: Homo sapiens, Cardiomyocyte, read-out: EC50 in iCell cardiomyocytes (protecting hiPSC-CMs)
Procedure: iCell cardiomyocytes were thawed, transferred to Plating Medium, counted using a Vi-CELL XR cell viability analyzer (Beckman Coulter), and seeded into 24-well plates for RNA collection (60,000 cells well^-1; Greiner) or μClear half-area 96-well plates for gene silencing (10,000 cells well^-1; Greiner). Plates were coated with 10 μg ml^-1 collagen type I (BD Biosciences). Cells were cultured in iCell Cardiomyocytes Plating Medium for 2 d and in Maintenance Medium thereafter. For compound dose-response comparisons, the cells were deposited in Plating Medium at 10,000 cells well^-1 in 0.1% (w/v) gelatin-coated 384-well white Greiner plates and were cultured as above for 8 d before treatment.
For cell-based dose-response experiments, MAP4K4 inhibitors were prepared in 96-well polypropylene plates as serial dilutions in DMSO of 10 mM stock solutions. […]
Assay plates were removed from the incubator, allowed to reach room temperature, inoculated with 20 μl well^-1 CTG reagent (Promega), and gently agitated for 30 min. […] Luminescence due to ATP, proportional to cell number, was captured on a PHERAstar Plus microplate reader (BMG Labtech). […]

[5] = tested on: vCor.4U cardiomyocytes; test: CellTiter-Glo viability after oxidative stress (H2O2 or menadione); type: cell-based, human; details: for protection from death signal (CellTiter-Glo): vCor.4U, 10 μM compound, up to 200 μM H2O2 or 45 μM menadione
Procedure: vCor.4U cardiomyocytes were cultured, except where noted, on white (viability) or black (FLIPR) clear-bottom 384-well plates, treated for 1 hr with […] fibronectin (Sigma-Aldrich). To minimize batch to batch variation, thawed cells first were transferred from cryo-vials into sterile 250 mL flasks containing pre-warmed vCor.4U maintenance medium, for 3-5 d. The cells were then plated at 1000 well^-1 for viability assays or 5000 cells well^-1 for FLIPR experiments, all in 40 μl well^-1 of the maintenance medium. Cells were cultured in Axiogenesis complete medium followed by incomplete medium, were subjected to oxidative stress ± test compounds on day 3, and were assayed on day 4 (Figures 4D and 4E). Alternatively, complete medium was replaced on day 2 of culture with 40 μl of DMEM high Glucose (no FCS or pyruvate), followed by removal and replacement of 20 μl every 2 d for 10 d (Figures 4A–4C).
H2O2, menadione (Sigma-Aldrich), doxorubicin (Calbiochem), and C2-ceramide (N-acetyl-D-sphingosine) were used at the indicated concentrations. MAP4K4 inhibitors were serially diluted in DMSO, transferred to an intermediate plate using assay medium as a diluting agent, and added at a final concentration of 0.1% DMSO. MAP4K4 inhibitors were added to cultured cardiomyocytes 1 hr before the cell death inducers, except where noted, and remained present for the duration of the experiment.
as §1
Assay plates were removed from the incubator, allowed to reach room temperature, inoculated with 20 μl well^-1 CTG reagent (Promega), and gently agitated for 30 min. Prior to adding CTG, 2 μl well^-1 of the culture medium was removed and placed into a white 384-well low volume plate for measurement of cardiac troponin release by AlphaLISA (below). Luminescence due to ATP, proportional to cell number, was captured on a PHERAstar Plus microplate reader (BMG Labtech). Normalized values were plotted against the log concentration of death signal or inhibitor, and a 4-parameter fit was used to identify IC50 and EC50, respectively.

[6] = biological target: MINK1/MAP4K6 (Homo sapiens, UniProt Q8N4C8); test: HTRF Transcreener ADP kinase assay; type: biochemical
MINK1/MAP4K6, sequence (Q8N4C8 whole entry): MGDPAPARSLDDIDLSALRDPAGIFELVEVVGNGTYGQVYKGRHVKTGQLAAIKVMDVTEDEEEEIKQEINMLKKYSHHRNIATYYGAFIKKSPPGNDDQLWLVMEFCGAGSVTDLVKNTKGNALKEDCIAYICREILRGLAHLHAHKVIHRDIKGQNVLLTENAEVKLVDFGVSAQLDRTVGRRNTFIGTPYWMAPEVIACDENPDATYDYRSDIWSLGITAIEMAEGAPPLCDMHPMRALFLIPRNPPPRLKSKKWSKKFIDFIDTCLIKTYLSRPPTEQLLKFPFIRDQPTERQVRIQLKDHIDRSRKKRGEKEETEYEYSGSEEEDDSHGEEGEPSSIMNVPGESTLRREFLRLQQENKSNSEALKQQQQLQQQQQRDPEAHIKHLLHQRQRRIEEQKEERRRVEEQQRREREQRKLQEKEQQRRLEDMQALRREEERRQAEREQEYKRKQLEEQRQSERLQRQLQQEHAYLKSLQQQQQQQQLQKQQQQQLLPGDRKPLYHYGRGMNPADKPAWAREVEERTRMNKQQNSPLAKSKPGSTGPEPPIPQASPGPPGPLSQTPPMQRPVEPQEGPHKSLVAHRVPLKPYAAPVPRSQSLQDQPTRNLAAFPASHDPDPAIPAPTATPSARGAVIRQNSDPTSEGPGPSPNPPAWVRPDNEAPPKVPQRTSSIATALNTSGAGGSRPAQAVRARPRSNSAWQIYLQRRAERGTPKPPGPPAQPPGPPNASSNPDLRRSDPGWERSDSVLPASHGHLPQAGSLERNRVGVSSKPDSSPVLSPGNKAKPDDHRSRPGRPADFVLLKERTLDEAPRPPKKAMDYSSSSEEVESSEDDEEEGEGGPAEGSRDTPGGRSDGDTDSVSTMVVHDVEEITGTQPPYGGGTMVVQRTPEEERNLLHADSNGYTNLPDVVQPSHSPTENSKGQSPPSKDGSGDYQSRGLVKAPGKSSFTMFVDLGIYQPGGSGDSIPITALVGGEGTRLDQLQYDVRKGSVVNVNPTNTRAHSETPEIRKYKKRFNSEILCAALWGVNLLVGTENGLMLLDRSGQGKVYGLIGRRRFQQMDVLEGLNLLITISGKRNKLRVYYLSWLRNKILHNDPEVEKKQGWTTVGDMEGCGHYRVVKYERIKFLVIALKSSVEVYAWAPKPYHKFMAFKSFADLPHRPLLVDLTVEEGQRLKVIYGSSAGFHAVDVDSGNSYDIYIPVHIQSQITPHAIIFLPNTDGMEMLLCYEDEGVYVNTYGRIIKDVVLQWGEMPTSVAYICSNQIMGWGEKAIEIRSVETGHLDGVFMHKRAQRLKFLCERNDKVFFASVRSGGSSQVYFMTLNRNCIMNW
Procedure: (§2) In the detection step, endogenous ADP and d2-labeled ADP compete for binding an anti-ADP monoclonal antibody labeled with Eu^3+ cryptate. A ratiometric fluorescent readout is used at 665 and 620 nm. […] Assays were run in Greiner low volume plates with a final reaction volume of 10 μl. […] Data were either reported as % inhibition at a single dose or as pIC50 values derived from dose response curves (pIC50 = -log[IC50]). Kinase selectivity profiling was performed by the International Centre for Kinase Profiling, MRC Protein Phosphorylation and Ubiquitylation Unit (141 kinases; Premier Screen, http://www.kinase-screen.mrc.ac.uk), using a [γ-^33P]ATP filter binding assay ([Bain et al., 2007]). Compounds were screened at 1 μM. For key hits, pIC50 values were then determined by HTRF as above. […] Stability in mouse and human liver microsomes was determined by Cyprotex.

[7] = biological target: TNIK/MAP4K7 (Homo sapiens, UniProt Q9UKE5); test: HTRF Transcreener ADP kinase assay; type: biochemical
TNIK/MAP4K7, sequence (Q9UKE5 whole entry): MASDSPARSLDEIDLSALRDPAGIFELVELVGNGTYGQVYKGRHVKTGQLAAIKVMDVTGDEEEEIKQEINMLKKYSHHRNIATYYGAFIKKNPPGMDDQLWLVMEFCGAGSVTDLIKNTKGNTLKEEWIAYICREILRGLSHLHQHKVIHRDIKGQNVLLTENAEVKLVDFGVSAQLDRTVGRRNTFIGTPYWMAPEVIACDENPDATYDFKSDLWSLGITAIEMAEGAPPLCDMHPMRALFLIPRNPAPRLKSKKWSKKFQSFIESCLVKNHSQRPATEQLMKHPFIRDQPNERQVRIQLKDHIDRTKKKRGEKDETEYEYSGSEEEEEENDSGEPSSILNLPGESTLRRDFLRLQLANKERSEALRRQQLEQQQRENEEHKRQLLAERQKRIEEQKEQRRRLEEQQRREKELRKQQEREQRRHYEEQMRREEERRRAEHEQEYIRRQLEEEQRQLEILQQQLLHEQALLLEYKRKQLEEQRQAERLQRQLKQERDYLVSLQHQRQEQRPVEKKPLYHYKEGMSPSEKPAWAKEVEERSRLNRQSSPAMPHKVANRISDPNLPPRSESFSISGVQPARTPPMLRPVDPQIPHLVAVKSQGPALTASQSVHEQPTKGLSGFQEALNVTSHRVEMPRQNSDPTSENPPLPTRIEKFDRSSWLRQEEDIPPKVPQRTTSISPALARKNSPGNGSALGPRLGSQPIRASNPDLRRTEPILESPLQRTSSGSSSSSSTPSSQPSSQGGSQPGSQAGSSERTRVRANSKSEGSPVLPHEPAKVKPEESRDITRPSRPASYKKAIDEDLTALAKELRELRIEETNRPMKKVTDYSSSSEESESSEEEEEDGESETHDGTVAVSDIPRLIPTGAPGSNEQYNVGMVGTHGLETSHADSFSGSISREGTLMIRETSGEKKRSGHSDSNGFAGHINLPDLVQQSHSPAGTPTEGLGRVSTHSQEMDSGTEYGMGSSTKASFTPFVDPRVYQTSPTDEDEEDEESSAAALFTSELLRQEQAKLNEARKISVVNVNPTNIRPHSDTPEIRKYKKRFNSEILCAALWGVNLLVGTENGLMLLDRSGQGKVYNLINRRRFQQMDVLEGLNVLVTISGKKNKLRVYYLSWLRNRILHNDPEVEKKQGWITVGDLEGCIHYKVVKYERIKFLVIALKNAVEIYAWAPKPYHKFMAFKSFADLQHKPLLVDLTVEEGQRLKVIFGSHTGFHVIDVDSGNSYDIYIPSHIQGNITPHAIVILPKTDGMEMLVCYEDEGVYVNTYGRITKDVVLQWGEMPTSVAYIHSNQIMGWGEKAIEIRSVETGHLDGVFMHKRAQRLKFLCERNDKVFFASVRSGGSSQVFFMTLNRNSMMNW
Procedure: as §2

| SMILES | protection from death signal (human cardiac troponin release) [1] | Cmax [2] [nM] | Vd [2] [L/kg] | clearance [2] [mL/min/kg] | half-life [2] [h] | AUC(0-inf) ([3]; Oral PK (50 mg kg^−1)) [µM·h] | Cmax ([3]; Oral PK (50 mg kg^−1)) [nM] | Tmax ([3]; Oral PK (50 mg kg^−1)) [h] | half-life ([3]; Oral PK (50 mg kg^−1)) [h] | EC50 [4] [nM] | protection from death signal (CellTiter-Glo) [5] | IC50 [6] [nM] | IC50 [7] [nM] | other results |
| --- | --- | --- | --- | --- | --- | --- | --- | --- | --- | --- | --- | --- | --- | --- |
| Oc1ncnc2c1c(-c1ccccc1)cn2-c1ccccc1 [F1386-0303, 5,7-diphenyl-7H-pyrrolo[2,3-d]pyrimidin-4-ol] | virtually complete | 3260 | 1.05 | 88.8 | 0.1 | 2.16 | 295 | 1 | 3.7 | 5000 | virtually complete | 38 | 93.3 |  |
| COCCOc1ccc(-c2cn(-c3ccccc3)c3nc[nH]c(=O)c23)cc1 [DMX-5804, 5-[4-(2-methoxy-ethoxy)-phenyl]-7-phenyl-3,7-dihydro-pyrrolo[2,3-d]pyrimidin-4-one] | substantiated | 1590 | 1.22 | 41.7 | 0.6 | 63.7 | 13800 | 1 | 1.8 | 500 | substantiated | 6.61 | 11 | Cl, DMX-5804 versus F1386-0303 ([2]; ratio): 0.47; Cmax, DMX-5804 versus F1386-0303 ([2]; ratio): 0.49; Vd, DMX-5804 versus F1386-0303 ([2]; ratio): 1.16; t1/2, DMX-5804 versus F1386-0303 ([2]; ratio): 6.00; improvement of free plasma concentration over the initial inhibitor ([3]; 50 mg kg^−1 oral dose, versus F1386-0303): more than 80 fold; AUCinf, DMX-5804 versus F1386-0303 ([3]; ratio, Oral PK (50 mg kg^−1)): 29.48; Cmax, DMX-5804 versus F1386-0303 ([3]; ratio, Oral PK (50 mg kg^−1)): 46.94; Tmax, DMX-5804 versus F1386-0303 ([3]; ratio, Oral PK (50 mg kg^−1)): 1.00; t1/2, DMX-5804 versus F1386-0303 ([3]; ratio, Oral PK (50 mg kg^−1)): 0.49; protection if given 1 h after oxidative stress ([5]; 400 μM H2O2, CellTiter-Glo): partial protection |
